Assay results: patent EP2999467B1, “USE OF A COMBINATION OF TWO COMPOUNDS FOR THE TREATMENT AND/OR PREVENTION OF BONE DISORDERS” (Institut National de la Recherche Agronomique (INRA), priority 2013, dated 2014)

Tested on: RAW264.7
Experiment: TRAP staining: RANKL-induced osteoclast differentiation, count of multinucleated TRAP+ cells
Format: cell-based
Source text: Les préostéoblastes primaires ont été isolés à partir de la calotte crânienne de rats Wistar nouveaux-nés par digestion enzymatique comme précédemment décrit [Declercq, H., Van den Vreken, N., De Maeyer, E., Verbeeck, R., Schacht, E., De Ridder, L., and Cornelissen, M. (2004). Isolation, proliferation and differentiation of osteoblastic cells to study cell/biomaterial interactions: comparison of different isolation techniques and source. Biomaterials 25, 757-68.]. Les précurseurs d'ostéoclastes RAW264.7 ont été obtenus auprès de l'ATCC (Manassas, VA, USA). Les préostéoblastes et les RAW264.7 ont été cultivés dans du milieu α-MEM (Invitrogen, Carlsbad, CA, USA) supplémenté avec 10% de SVF décomplémenté et de 100 unités/ml de pénicilline-streptomycine.
Pour la coloration TRAP, 60.000 cellules RAW264.7 ont été ensemencées dans des puits de plaques 12 puits pendant 12 heures puis traitées avec du DMSO/éthanol comme témoin ou de la fisétine (5 µM dans le DMSO) ou du DHA (50µM dans l'éthanol) ou la combinaison des deux (Fisétine 5 µM et DHA 50 µM) pendant 3 heures. Les cellules ont ensuite été induites à se différencier en présence de RANKL (50 ng/ml) avec du DMSO/éthanol ou de la fisétine (5 µM) ou du DHA (50 µM) ou la combinaison des deux (Fisétine 5 µM et DHA 50 µM) durant 4 jours avec un changement de milieux après 2 jours. De la BSA délipidée et sans endotoxines a été utilisée pour solubiliser le DHA avec un rapport 1/5 (BSA/DHA).
La coloration TRAP a été réalisée en utilisant le kit « leukocyte acid phosphatase » (Sigma-Aldrich) selon les recommandations du fournisseur après fixation des cellules. Les cellules TRAP+ multinucléées ont ensuite été comptées.

**Q.** Which results are given for `CC/C=C\C/C=C\C/C=C\C/C=C\C/C=C\C/C=C\CCC(=O)O` [DHA, acide docosahexaénoïque]?
**A.** inhibition at 50 µM (Mus musculus, RAW264.7, 96 h, DHA 50µM, RANKL 50 ng/ml, 4 days, vs RANKL condition, read-out: inhibition de l'induction par RANKL de la formation de cellules multinucléées TRAP+ (ostéoclastes)): 23%; ostéoclastes/cm^2 (condition RANKL+DHA (50µM), RANKL alone 735+/-251): 564+/-259 ostéoclastes/cm^2
